Measurements published in the NIST ThermoML archive (doi:10.1016/j.jct.2017.03.006).
± gives the expanded uncertainty stated by the source.

Assay: xn = mol fraction of the nth substance listed
Conditions: Liquid; for mass density: 313.15 K, Vibrating tube method; for viscosity: 323.15 K, 100 kPa, Concentric cylinders viscometry

Cc1ccc(C)c(C)c1 [1,2,4-trimethylbenzene] + CCC(C)O
mass density (50000 kPa, x2 = 0.5997): 855 ± 0.8 kg/m3 | mass density (50000 kPa, x2 = 0.6999): 848.2 ± 0.8 kg/m3 | mass density (50000 kPa, x2 = 0.7999): 841.1 ± 0.8 kg/m3 | mass density (50000 kPa, x2 = 0.9): 833.3 ± 0.8 kg/m3 | mass density (60000 kPa, x2 = 0): 895 ± 0.8 kg/m3 | mass density (60000 kPa, x2 = 0.1): 890.1 ± 0.8 kg/m3 | mass density (60000 kPa, x2 = 0.1989): 884.6 ± 0.8 kg/m3 | mass density (60000 kPa, x2 = 0.3011): 878.8 ± 0.8 kg/m3 | mass density (60000 kPa, x2 = 0.4002): 873.1 ± 0.8 kg/m3 | mass density (60000 kPa, x2 = 0.5001): 867.1 ± 0.8 kg/m3 | mass density (60000 kPa, x2 = 0.5997): 860.6 ± 0.8 kg/m3 | mass density (60000 kPa, x2 = 0.6999): 853.8 ± 0.8 kg/m3 | mass density (60000 kPa, x2 = 0.7999): 846.7 ± 0.8 kg/m3 | mass density (60000 kPa, x2 = 0.9): 839 ± 0.8 kg/m3 | mass density (70000 kPa, x2 = 0): 899.9 ± 0.8 kg/m3 | mass density (70000 kPa, x2 = 0.1): 895.3 ± 0.8 kg/m3 | mass density (70000 kPa, x2 = 0.1989): 889.7 ± 0.8 kg/m3 | mass density (70000 kPa, x2 = 0.3011): 884.1 ± 0.8 kg/m3 | mass density (70000 kPa, x2 = 0.4002): 878.3 ± 0.8 kg/m3 | mass density (70000 kPa, x2 = 0.5001): 872.4 ± 0.8 kg/m3 | mass density (70000 kPa, x2 = 0.5997): 865.9 ± 0.8 kg/m3 | mass density (70000 kPa, x2 = 0.6999): 859.1 ± 0.8 kg/m3 | mass density (70000 kPa, x2 = 0.7999): 852.1 ± 0.8 kg/m3 | mass density (70000 kPa, x2 = 0.9): 844.4 ± 0.9 kg/m3 | mass density (80000 kPa, x2 = 0): 904.6 ± 0.8 kg/m3 | mass density (80000 kPa, x2 = 0.1): 900.1 ± 0.8 kg/m3 | mass density (80000 kPa, x2 = 0.1989): 894.7 ± 0.8 kg/m3 | mass density (80000 kPa, x2 = 0.3011): 889 ± 0.8 kg/m3 | mass density (80000 kPa, x2 = 0.4002): 883.3 ± 0.8 kg/m3 | mass density (80000 kPa, x2 = 0.5001): 877.5 ± 0.8 kg/m3 | mass density (80000 kPa, x2 = 0.5997): 871 ± 0.8 kg/m3 | mass density (80000 kPa, x2 = 0.6999): 864.2 ± 0.8 kg/m3 | mass density (80000 kPa, x2 = 0.7999): 857.2 ± 0.9 kg/m3 | mass density (80000 kPa, x2 = 0.9): 849.5 ± 0.9 kg/m3 | mass density (90000 kPa, x2 = 0): 909 ± 0.8 kg/m3 | mass density (90000 kPa, x2 = 0.1): 904.7 ± 0.8 kg/m3 | mass density (90000 kPa, x2 = 0.1989): 899.4 ± 0.8 kg/m3 | mass density (90000 kPa, x2 = 0.3011): 893.6 ± 0.8 kg/m3 | mass density (90000 kPa, x2 = 0.4002): 888.1 ± 0.8 kg/m3 | mass density (90000 kPa, x2 = 0.5001): 882.2 ± 0.8 kg/m3 | mass density (90000 kPa, x2 = 0.5997): 875.7 ± 0.9 kg/m3 | mass density (90000 kPa, x2 = 0.6999): 869 ± 0.9 kg/m3 | mass density (90000 kPa, x2 = 0.7999): 861.9 ± 0.9 kg/m3 | mass density (90000 kPa, x2 = 0.9): 854.3 ± 0.9 kg/m3 | mass density (100000 kPa, x2 = 0): 913.3 ± 0.8 kg/m3 | mass density (100000 kPa, x2 = 0.1): 909.2 ± 0.8 kg/m3 | mass density (100000 kPa, x2 = 0.1989): 903.8 ± 0.8 kg/m3 | mass density (100000 kPa, x2 = 0.3011): 898.1 ± 0.8 kg/m3 | mass density (100000 kPa, x2 = 0.4002): 892.5 ± 0.8 kg/m3 | mass density (100000 kPa, x2 = 0.5001): 886.8 ± 0.9 kg/m3 | mass density (100000 kPa, x2 = 0.5997): 880.3 ± 0.9 kg/m3 | mass density (100000 kPa, x2 = 0.6999): 873.6 ± 0.9 kg/m3 | mass density (100000 kPa, x2 = 0.7999): 866.6 ± 0.9 kg/m3 | mass density (100000 kPa, x2 = 0.9): 859 ± 0.9 kg/m3 | mass density (110000 kPa, x2 = 0): 917.4 ± 0.8 kg/m3 | mass density (110000 kPa, x2 = 0.1): 913.5 ± 0.8 kg/m3 | mass density (110000 kPa, x2 = 0.1989): 908.1 ± 0.8 kg/m3 | mass density (110000 kPa, x2 = 0.3011): 902.5 ± 0.8 kg/m3 | mass density (110000 kPa, x2 = 0.4002): 897 ± 0.9 kg/m3 | mass density (110000 kPa, x2 = 0.5001): 891.3 ± 0.9 kg/m3 | mass density (110000 kPa, x2 = 0.5997): 884.8 ± 0.9 kg/m3 | mass density (110000 kPa, x2 = 0.6999): 878.1 ± 0.9 kg/m3 | mass density (110000 kPa, x2 = 0.7999): 871.1 ± 0.9 kg/m3 | mass density (110000 kPa, x2 = 0.9): 863.5 ± 0.9 kg/m3 | mass density (120000 kPa, x2 = 0): 921.4 ± 0.8 kg/m3 | mass density (120000 kPa, x2 = 0.1): 917.6 ± 0.8 kg/m3 | mass density (120000 kPa, x2 = 0.1989): 912.3 ± 0.8 kg/m3 | mass density (120000 kPa, x2 = 0.3011): 906.7 ± 0.8 kg/m3 | mass density (120000 kPa, x2 = 0.4002): 901.1 ± 0.9 kg/m3 | mass density (120000 kPa, x2 = 0.5001): 895.5 ± 0.9 kg/m3 | mass density (120000 kPa, x2 = 0.5997): 889.1 ± 0.9 kg/m3 | mass density (120000 kPa, x2 = 0.6999): 882.4 ± 0.9 kg/m3 | mass density (120000 kPa, x2 = 0.7999): 875.3 ± 0.9 kg/m3 | mass density (120000 kPa, x2 = 0.9): 867.7 ± 1 kg/m3 | mass density (130000 kPa, x2 = 0): 925.2 ± 0.8 kg/m3 | mass density (130000 kPa, x2 = 0.1): 921.5 ± 0.8 kg/m3 | mass density (130000 kPa, x2 = 0.1989): 916.3 ± 0.8 kg/m3 | mass density (130000 kPa, x2 = 0.3011): 910.7 ± 0.9 kg/m3 | mass density (130000 kPa, x2 = 0.4002): 905.2 ± 0.9 kg/m3 | mass density (130000 kPa, x2 = 0.5001): 899.6 ± 0.9 kg/m3 | mass density (130000 kPa, x2 = 0.5997): 893.2 ± 0.9 kg/m3 | mass density (130000 kPa, x2 = 0.6999): 886.6 ± 0.9 kg/m3 | mass density (130000 kPa, x2 = 0.7999): 879.5 ± 0.9 kg/m3 | mass density (130000 kPa, x2 = 0.9): 871.9 ± 1 kg/m3 | mass density (140000 kPa, x2 = 0): 928.9 ± 0.8 kg/m3 | mass density (140000 kPa, x2 = 0.1): 925.4 ± 0.8 kg/m3 | mass density (140000 kPa, x2 = 0.1989): 920.2 ± 0.8 kg/m3 | mass density (140000 kPa, x2 = 0.3011): 914.4 ± 0.9 kg/m3 | mass density (140000 kPa, x2 = 0.4002): 908.9 ± 0.9 kg/m3 | mass density (140000 kPa, x2 = 0.5001): 903.7 ± 0.9 kg/m3 | mass density (140000 kPa, x2 = 0.5997): 897.3 ± 0.9 kg/m3 | mass density (140000 kPa, x2 = 0.6999): 890.2 ± 0.9 kg/m3 | mass density (140000 kPa, x2 = 0.7999): 883.2 ± 1 kg/m3 | mass density (140000 kPa, x2 = 0.9): 875.6 ± 1 kg/m3 | viscosity (x2 = 0): 0.62 ± 0.014 mPa·s | viscosity (x2 = 0.1001): 0.62 ± 0.014 mPa·s | viscosity (x2 = 0.2261): 0.614 ± 0.013 mPa·s | viscosity (x2 = 0.3): 0.616 ± 0.013 mPa·s | viscosity (x2 = 0.3966): 0.646 ± 0.014 mPa·s | viscosity (x2 = 0.5298): 0.658 ± 0.014 mPa·s | viscosity (x2 = 0.6001): 0.71 ± 0.015 mPa·s
